Measurements reported in US20140182011A1, “Methods Using Acyl-Coenzyme A-Binding Proteins to Enchance Drought Tolerance in Genetically Modified Plants” (The University of Hong Kong, priority 2011, published 2014).

Experiments:
[1] = tested on: ACBP2; test: qRT-PCR of ACBP2 expression after ABA treatment; format: in vivo, Arabidopsis; conditions: 12-day-old seedlings, ABA (100 µM), continuous white light
Method: TRIzol® reagent was also used for RNA extraction of 12-day-old Arabidopsis seedlings subject to treatment by 100 μM ABA or drought for the various times (0, 1, 3, 6 and 24 h) under continuous white light. First-strand was synthesized using the Superscript First-Strand Synthesis System (Invitrogen). QRT-PCR was performed using StepOne Plus (Applied Biosystems) and FastStart Universal SYBR Green Master (Roche). Transcript changes were analyzed according to Schmittgen and Livak (Nat. Protoc. 3:1101-1108 (2008) from three independent experiments.
To determine the effect of ABA treatment on ACBP2 expression, the expression of ACBP2 was examined by Real-time quantitative PCR (qRT-PCR) using primers ML1122 and ML1123 (SEQ ID NOs: 1 and 2) in 12-day-old seedlings before and after ABA treatment under continuous white light. qRT-PCR was performed using StepOne Plus (Applied Biosystems) and FastStart Universal SYBR Green Master (Roche). Transcript changes were analyzed according to Schmittgen and Livak (Nat. Protoc. 3: 1101-1108 (2008) from three independent experiments.

[2] = tested on: Arabidopsis seeds; test: Seed germination with ABA treatment; format: in vivo
Method: To test ABA sensitivity at germination, over 200 seeds per experiment were sown on MS medium in the presence or absence of […] (Sigma-Aldrich, St Louis, Mo., USA). After 2 d at 4° C., seeds were germinated and grown under 16-hour-light (23° C.)/8-hour-dark (21° C.) cycles. Germination was examined daily with a microscope (Leica MZ6; Leica, Solms, Germany), and seedlings were photographed after 7 d. For post-germination growth assays, seeds were germinated on MS medium for 4 d, followed by transfer to MS medium or MS medium supplemented with […] for 7 d before photography and root measurements.

[3] = tested on: ACBP2pro:GUS; test: Histochemical GUS assay during germination; format: in vivo, Arabidopsis; conditions: ABA treatment
Method: Histochemical GUS assays were carried out using 5 bromo-4-chloro-3-indolyl-b-D-glucuronide (X-Glue) according to Liu et al., Plant Cell, 16: 5-20 (2004). Plant samples were immersed and vacuum filtrated in the GUS staining solution for 30 min (100 mM sodium phosphate buffer, pH 7.0, 0.1% Triton X-100, 2 mM potassium ferricyanide, 2 mM potassium ferrocyanide, 1 mg/mL 5 bromo-4-chloro-3-indolyl-β-D-glucuronide), incubated and observed over a period ranging from 3 to 16 h at 37° C. Subsequently, samples were cleared in 70% ethanol and photographed.

SMILES: CC1=CC(=O)CC(C)(C)[C@@]1(O)/C=C/C(C)=C\C(=O)O [ABA, Abscisic acid]
- ACBP2 expression (qRT-PCR) [1]: significant induction
- seed germination [2]: suppressed germination
- GUS expression as germination progressed [3]: retained GUS expression
